From PMC3726336, “Product inhibition of cellulases studied with ^14C-labeled cellulose substrates” (Biotechnology for Biofuels, 2013)
Where two headings read alike, the source gives them in different places.

Tests used:
TrCel7A = target: T1, TrCel7A (Trichoderma reesei, UniProt P62694); experiment: Inhibition of synergistic hydrolysis of 14C-BC by TrCel7A (supplemented with EG TrCel5A); assay type: biochemical; details: IC50 for cellobiose, 14C-BC substrate, average over time points
T1 construct: TrCel7A was purified from the culture filtrate of Tr QM 9414 as described previously; made in house; host or cells: Trichoderma reesei QM 9414 culture filtrate (native producer)
Procedure: To study the cellobiose inhibition of GH7 CBHs, the synergistic hydrolysis of ^14C-BC in the presence of added cellobiose was followed (Figure 3, Additional file 1: Figures S1 and S2). Because the cellobiose inhibition of the EG TrCel5A is much weaker than that of GH7 CBHs, the inhibition of synergistic hydrolysis apparently reflects the inhibition of CBH. The strength of cellobiose inhibition was analyzed using plots of (DCB/DCB=0) versus [cellobiose], where DCB and DCB=0 represent the degree of conversion of ^14C-BC in the presence and absence of cellobiose, respectively (Figure 4, Additional file 1: Figure S3). […]
(§1) where [CB] is the concentration of cellobiose; [^14CBC] is the concentration of ^14C-BC used in the experiment; and C1, C2 and H are empirical constants. Equation 5 differs from Equation 1 by the presence of constant H. H was included to improve the fit and is a constant that accounts for the background radioactivity (the degree of conversion that is independent of CBH). The degree of conversion resulting from the activity of the EG was measured in a separate experiment (Additional file 1: Figure S4) and was subtracted from the degree of conversion resulting from the synergistic hydrolysis. […] Provided with the values of C1, C2 and H, the value of IC50 was calculated as follows: […]

TrCel12A = test system: TrCel12A; set-up: method as in PMID 15129433; details: 3H-reduced amorphous cellulose, cellobiose 1 mM – 100 mM; cited from earlier work
CtCel6A = CtCel6A (Chaetomium thermophilum, UniProt G0SD43); experiment: Inhibition of hydrolysis of 14C-BMCC by CtCel6A; assay type: biochemical; details: cellobiose; hydrolysis of 14C-BMCC by CtCel6A at 50°C
From the text: Here, we characterized the cellobiose and glucose inhibition of TrCel6A and its thermophilic counterpart, CtCel6A [9, 63]. First, the cellobiose inhibition of the synergistic hydrolysis of ^14C-BC by TrCel6A and TrCel5A was studied (Figure 7A). As TrCel6A was less sensitive to cellobiose inhibition than TrCel7A, the contribution of the cellobiose released during hydrolysis was not significant, and an average (DCB/DCB=0) over all time points was used in plotting (DCB/DCB=0) versus [cellobiose] (Figure 7D). No significant systematic variation of DCB/DCB=0 depending on hydrolysis time was observed. As in the case of GH7 CBHs, the IC50 value was found using Equations 5 and 6. Because the IC50 value for synergistic hydrolysis (Table 3) was of the same order as the apparent Ki value reported for TrCel5A [31], we further tested the inhibition of individual TrCel6A. BC is not a good substrate for TrCel6A, but its acid-treated derivative, BMCC, is readily degraded by the enzyme. Therefore, we prepared ^14C-BMCC by the heterogeneous acid hydrolysis of ^14C-BC. […]
GH6 CBHs were assessed by observing the hydrolysis of ^14C-BMCC. ^14C-BMCC (0.25 g l^-1) was incubated (with shaking at 350 rpm) with CBH (0.25 μM) and N188BG (0.06 μM) in 50 mM sodium acetate buffer, pH 5.0, containing BSA (0.1 g l^-1). […]

AtCel7A = AtCel7A (Acremonium thermophilum, UniProt A7WNT9); experiment: Inhibition of synergistic hydrolysis of 14C-BC by AtCel7A (supplemented with EG TrCel5A); assay type: biochemical; details: 14C-BC substrate, read-out: IC50 for cellobiose
Procedure: To study the cellobiose inhibition of GH7 CBHs, the synergistic hydrolysis of ^14C-BC in the presence of added cellobiose was followed (Figure 3, Additional file 1: Figures S1 and S2). Because the cellobiose inhibition of the EG TrCel5A is much weaker than that of GH7 CBHs, the inhibition of synergistic hydrolysis apparently reflects the inhibition of CBH. The strength of cellobiose inhibition was analyzed using plots of (DCB/DCB=0) versus [cellobiose], where DCB and DCB=0 represent the degree of conversion of ^14C-BC in the presence and absence of cellobiose, respectively (Figure 4, Additional file 1: Figure S3). In the case of experiments without added cellobiose, the reactions were provided with N188BG to prevent the inhibition of the CBH by the cellobiose released during hydrolysis. Experiments with no added cellobiose and without BG were also conducted. […] Therefore, the concentration of the cellobiose released during hydrolysis was added to the concentration of externally supplied cellobiose in generating the plots in Figure 4 and Additional file 1: Figure S3. For the calculation of IC50 values, the data were first fitted to hyperbolae:
as §1, with “hydrolysis. Thus, in the case of complete inhibition, H should have a value of zero.” for “hydrolysis.”
Using the time course data measured in the presence and absence of cellobiose, the IC50 values were first found separately for each time point (Figure 4A). […]

Chain of AtCel7A (A7WNT9 entry or part of it): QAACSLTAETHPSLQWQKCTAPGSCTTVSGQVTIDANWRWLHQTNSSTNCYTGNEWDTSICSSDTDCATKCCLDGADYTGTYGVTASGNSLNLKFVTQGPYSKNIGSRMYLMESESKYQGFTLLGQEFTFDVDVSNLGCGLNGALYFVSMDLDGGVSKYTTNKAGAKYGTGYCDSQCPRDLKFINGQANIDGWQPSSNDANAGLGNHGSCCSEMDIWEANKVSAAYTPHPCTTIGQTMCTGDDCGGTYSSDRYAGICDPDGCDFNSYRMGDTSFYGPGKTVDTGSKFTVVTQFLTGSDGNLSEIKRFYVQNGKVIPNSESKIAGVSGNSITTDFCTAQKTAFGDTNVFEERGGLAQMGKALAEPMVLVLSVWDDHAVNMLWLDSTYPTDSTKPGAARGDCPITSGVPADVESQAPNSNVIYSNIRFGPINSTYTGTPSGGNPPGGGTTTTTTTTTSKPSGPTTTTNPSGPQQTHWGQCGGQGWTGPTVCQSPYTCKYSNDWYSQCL
T1 sequence (P62694 18-513): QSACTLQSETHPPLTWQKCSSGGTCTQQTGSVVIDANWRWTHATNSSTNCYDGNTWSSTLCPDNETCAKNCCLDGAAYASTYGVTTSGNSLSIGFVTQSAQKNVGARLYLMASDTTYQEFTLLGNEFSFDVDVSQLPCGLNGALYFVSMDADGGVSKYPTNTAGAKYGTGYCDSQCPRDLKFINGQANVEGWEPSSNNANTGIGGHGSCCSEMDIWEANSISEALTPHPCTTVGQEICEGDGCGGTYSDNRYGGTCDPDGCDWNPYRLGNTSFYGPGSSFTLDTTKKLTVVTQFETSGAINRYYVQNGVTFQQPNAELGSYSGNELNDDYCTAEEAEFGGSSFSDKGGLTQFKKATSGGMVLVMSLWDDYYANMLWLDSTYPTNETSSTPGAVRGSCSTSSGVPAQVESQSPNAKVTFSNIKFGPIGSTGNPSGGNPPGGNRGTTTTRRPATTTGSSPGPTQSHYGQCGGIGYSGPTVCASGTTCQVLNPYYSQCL
Chain of CtCel6A (G0SD43 entry or part of it): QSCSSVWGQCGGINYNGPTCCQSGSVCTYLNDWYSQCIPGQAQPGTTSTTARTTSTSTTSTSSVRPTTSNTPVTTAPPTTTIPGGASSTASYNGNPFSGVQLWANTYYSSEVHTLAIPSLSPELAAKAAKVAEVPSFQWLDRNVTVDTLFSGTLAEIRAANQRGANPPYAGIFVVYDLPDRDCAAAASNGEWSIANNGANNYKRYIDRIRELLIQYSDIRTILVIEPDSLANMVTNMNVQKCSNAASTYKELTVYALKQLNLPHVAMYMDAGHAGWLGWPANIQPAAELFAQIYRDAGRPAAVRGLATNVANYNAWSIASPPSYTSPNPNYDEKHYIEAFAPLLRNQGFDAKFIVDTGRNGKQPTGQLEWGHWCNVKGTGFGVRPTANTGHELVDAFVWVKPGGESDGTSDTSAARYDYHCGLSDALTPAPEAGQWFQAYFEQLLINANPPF

Structure (SMILES): O=C[C@H](O)[C@@H](O)[C@H](O[C@@H]1O[C@H](CO)[C@@H](O)[C@H](O)[C@H]1O)[C@H](O)CO [cellobiose, Cellobiose]
- IC50 (TrCel7A; 35°C, IC50 increased with hydrolysis time): 680 ± 240 µM
- IC50 (TrCel7A; 50°C): 2610 ± 100 µM
- Effect of cellobiose on activity (TrCel12A): apparent activation
- IC50 (CtCel6A): 28000 ± 4500 µM
- IC50 (AtCel7A; 25°C, IC50 decreased with hydrolysis time): 190 ± 100 µM
- IC50 (AtCel7A; 35°C): 440 ± 100 µM
- IC50 (AtCel7A; 50°C, IC50 increased with hydrolysis time): 2120 ± 1400 µM
